In patent US9650403B2, “Platinum (II) compound, preparation method therefor, and pharmaceutical composition and application thereof” (SHANGHAI INSTITUTE OF PHARMACEUTICAL INDUSTRY, priority 2013, dated 2017):

Experiments:
[1] = system: transplanted S180 tumor; test: anti-tumor rate in ICR mice with transplanted S180 tumor; type: in vivo
Experimental: The model of ICR mice with transplanted 5180 sarcoma in vivo was used to determine the anticancer effect of the compound. Specific steps are as follows:
Samples: cis-3-hydroxy-acrylic acid diammine platinum (II), serial number: SIPI-601.
Positive control: Oxaliplatin for injection, Jiangsu Hengrui Medicine Co., Ltd, lot number: 13082811, 50 mg per bottle.
Samples: SIPI-601, which was dissolved by a 10% glucose injection.
Positive control: Oxaliplatin for injection, which was dissolved by a 10% glucose injection.
(§1) 32 ICR mice, male, weight 18-20 g, were supplied by Sippr/Bk Laboratory Animals Ltd, certification: SCXK (shanghai) 2008-2016.
Tumor cell trains: two ICR mice with S180 ascites tumor, passage cultured by pharmacological office, Shanghai State Institute of Pharmaceutical Industry (SIPI).
(§2) The ascites of two vigorous growing ICR mice with S180 ascites tumor was extracted under a sterile condition, diluted 6 times with saline water, axilla subcutaneously inoculated with a dosage of 0.2 ml per mouse. The mice were randomly divided into four groups the next day, 8 for each group.
(§3) The groups were blank control group, SIPI-601 60 mg/kg iv group (administered once every three days), SIPI-601 120 mg/kg iv group (administered once every six days), Oxaliplatin 9 mg/kg iv group (administered once every other day).
(§4) The mice were administered the second day after inoculation. After the treatment, the survived animals were euthanatized, the tumors were taken and weighed to calculate anti-tumor rate.

[2] = body weight of ICR mice with transplanted S180 tumor; type: in vivo
Experimental: as §1, §2, §3, §4

[3] = system: human breast cancer cell strain Bcap37; test: MTT cytotoxicity on human tumor cell strains in vitro; type: cell-based; details: 48 hours
Experimental: (§5) MTT method was employed to test the cytotoxic effect caused by the compound on human tumor cell stains in vitro. Specific steps are as follows:
(§6) The tumor cells (human poorly differentiated gastric cancer cell stain BGC-823, human breast cancer cell strain Bcap37, human oral cancer cell strain KB) was cultured in a 10% calf serum, inoculated into a 96-well plate (2×10^5 cells per well) at 37° C. in an incubator with 5% CO2. The cis-3-hydroxy-acrylic acid diammine platinum (II) was dissolved in DMSO to obtain a solution with a concentration of 10 mg/ml. The solution was diluted to the required concentration with a phosphate buffer, and then added into the wells of the 96-well plate respectively, each concentration was for two wells, 10 μl per well, therefore, each concentration has two parallel tests. DMSO was diluted accordingly in a gradient manner and added into the wells of the 96-well plate as controls.
(§7) After the 96-well plate was kept at 37° C. in the incubator with 5% CO2 for 48 hours, 20 μl 5 mg/ml MTT solution was added into per well. Then the 96-well plate were further kept for 3-4 hours in the incubator at the same temperature. 100 μl solvent was added into per well and the 96-well plate was kept warm in the incubator overnight to make the generated formazan crystals dissolve sufficiently. The light absorption value at 492 nm was determined.
(§8) A relative survival rate of cells was calculated according to the light absorption value after the treatment of the compound. The calculation formula is as follows: […]
(§9) The IC50 of the compound against each kind of tumor cells was calculated though software.

[4] = system: human oral cancer cell strain KB; test: as above; type: cell-based; details: 48 hours
Experimental: as §5, §6, §7, §8, §9

[5] = system: human poorly differentiated gastric cancer cell stain BGC-823; test: as above; type: cell-based; details: BGC-823, MTT, 48 hours
Experimental: as §5, §6, §7, §8, §9

[6] = water-solubility at room temperature
[7] = 9 mg/kg iv, once every other day
[8] = 60 mg/kg iv, once every three days
[9] = 120 mg/kg iv, once every six days

Compound	The anti-tumor rate [1, 7] [%]	The final body weight after the removal of tumor [2, 7] [g]	IC50 [3] [µg/mL]	IC50 [4] [µg/mL]	IC50 [5] [µg/mL]	The anti-tumor rate [1, 8] [%]	The anti-tumor rate [1, 9] [%]	The final body weight after the removal of tumor [2, 8] [g]	The final body weight after the removal of tumor [2, 9] [g]	water-solubility [6]
O=C1[O][Pt]2([NH][C@@H]3CCCC[C@H]3[NH]2)[O]C1=O [Oxaliplatin, reference compound]	62.42	19.92	–	–	–	–	–	–	–	–
cis-3-hydroxy-acrylic acid diammine platinum (II) [SIPI-601]	–	–	21.58	33.94	2.28	64.39	66.83	22.46	20.34	greater than 25 mg/mL
